Laboratory results: ChEMBL document CHEMBL4819135, “Design, synthesis and anti-HIV evaluation of novel 5-substituted diarylpyrimidine derivatives as potent HIV-1 NNRTIs” (Bioorg Med Chem, 2021)

Columns and labels:
[1] = Antiviral activity against HIV-2 ROD infected in human MT4 cells assessed as protection against virus-induced cytotoxicity incubated for 5 days by MTT assay; format: functional, cell-based; conditions: HIV-2, ISOLATE ROD, MT4, 120 h
[2] = test system: Human immunodeficiency virus 1; experiment: Antiviral activity against HIV-1 IIIB harboring RT E138K mutant infected in human MT4 cells assessed as protection against virus-induced cytotoxicity incubated for 5 days by MTT assay; format: functional, organism-based; conditions: Human immunodeficiency virus 1, IIIB, MT4, 120 h
[3] = test system: Human immunodeficiency virus 1; experiment: Antiviral activity against HIV-1 IIIB harboring RT L100I mutant infected in human MT4 cells assessed as protection against virus-induced cytotoxicity incubated for 5 days by MTT assay; format: functional, organism-based; conditions: Human immunodeficiency virus 1, IIIB, MT4, 120 h
[4] = test system: Human immunodeficiency virus 1; experiment: Antiviral activity against HIV-1 IIIB harboring RT Y181C mutant infected in human MT4 cells assessed as protection against virus-induced cytotoxicity incubated for 5 days by MTT assay; format: functional, organism-based; conditions: Human immunodeficiency virus 1, IIIB, MT4, 120 h
[5] = Cytotoxicity against human MT4 cells assessed as reduction in cell viability after 5 days by MTT assay; format: cell-based; conditions: time 5 day
[6] = test system: Human immunodeficiency virus 1; experiment: Antiviral activity against HIV-1 IIIB harboring RT K103N mutant infected in human MT4 cells assessed as protection against virus-induced cytotoxicity incubated for 5 days by MTT assay; format: functional, organism-based; conditions: Human immunodeficiency virus 1, IIIB, MT4, 120 h
[7] = test system: Human immunodeficiency virus 1; experiment: Antiviral activity against HIV-1 IIIB harboring RT Y188L mutant infected in human MT4 cells assessed as protection against virus-induced cytotoxicity incubated for 5 days by MTT assay; format: functional, organism-based; conditions: Human immunodeficiency virus 1, IIIB, MT4, 120 h
[8] = test system: Human immunodeficiency virus 1; experiment: Antiviral activity against HIV-1 IIIB harboring RT F227L/V106A mutant infected in human MT4 cells assessed as protection against virus-induced cytotoxicity incubated for 5 days by MTT assay; format: functional, organism-based; conditions: Human immunodeficiency virus 1, IIIB, MT4, 120 h
[9] = test system: Human immunodeficiency virus 1; experiment: Antiviral activity against HIV-1 RES056 infected in human MT4 cells assessed as protection against virus-induced cytotoxicity incubated for 5 days by MTT assay; format: functional, organism-based; conditions: Human immunodeficiency virus 1, RES056, MT4, 120 h
[10] = test system: Human immunodeficiency virus 1; experiment: Antiviral activity against HIV-1 IIIB infected in human MT4 cells assessed as protection against virus-induced cytotoxicity after 5 days by MTT assay; format: functional, organism-based; conditions: Human immunodeficiency virus 1, IIIB, MT4, 120 h
[11] = test system: Human immunodeficiency virus 1; experiment: Antiviral activity against HIV-1 IIIB; format: functional, organism-based; conditions: Human immunodeficiency virus 1, IIIB
[12] = test system: Human immunodeficiency virus 1; experiment: Potency index, ratio of Etravirine EC50 to test compound EC50 for antiviral activity against HIV-1 IIIB harboring RT E138K mutant infected in human MT4 cells by MTT assay; format: functional
[13] = test system: Human immunodeficiency virus 1; experiment: Potency index, ratio of Etravirine EC50 to test compound EC50 for antiviral activity against HIV-1 IIIB infected in human MT4 cells by MTT assay; format: functional
[14] = biological target: Human immunodeficiency virus type 1 reverse transcriptase (Human immunodeficiency virus 1, UniProt Q72547); experiment: Inhibition of wild type HIV-1 reverse transcriptase assessed as reduction in biotin-dUTP incorporation in presence of template-primer incubated for 60 mins followed by transferring to streptavidin-coated plate and further incubation for 60 mins by ELISA

| SMILES | EC50 [1] [nM] | EC50 [2] [nM] | EC50 [3] [nM] | EC50 [4] [nM] | CC50 at 120 h [5] [nM] | EC50 [6] [nM] | EC50 [7] [nM] | EC50 [8] [nM] | EC50 [9] [nM] | EC50 [10] [nM] | EC50 [11] [nM] | Ratio EC50 [12] | Ratio EC50 [13] | IC50 [14] [nM] |
| --- | --- | --- | --- | --- | --- | --- | --- | --- | --- | --- | --- | --- | --- | --- |
| Cc1cc(C#N)cc(C)c1Oc1nc(Nc2ccc(C#N)cc2)ncc1-c1ccc(F)cc1 | > 42700 | 18.5 | 159 | 113 | 42700 | 10.1 | 102 | 526 | 5000 | 6.2 | – | – | – | – |
| Cc1ccc(-c2cnc(Nc3ccc(C#N)cc3)nc2Oc2c(C)cc(C#N)cc2C)cc1 | > 26100 | 57.2 | 138 | 347 | 26100 | 20.3 | 267 | 707 | > 10600 | 11.7 | – | – | – | – |
| Cc1cc(C#N)cc(C)c1Oc1nc(Nc2ccc(C#N)cc2)ncc1-c1cncnc1 | > 298000 | 11.8 | 38.3 | 32.4 | > 298000 | 5.3 | 73.4 | 325 | 316 | 4.6 | – | – | – | – |
| Cc1cc(C#N)cc(C)c1Oc1nc(Nc2ccc(C#N)cc2)nc2ccsc12 | – | – | – | – | – | – | – | – | – | – | 1.6 | – | – | – |
| Cc1ccnc2c1NC(=O)c1cccnc1N2C1CC1 [NEVIRAPINE] | – | 115 | 589 | 3670 | > 15000 | 2320 | 5350 | 4310 | 10700 | 133 | – | – | – | – |
| Cc1cc(C#N)cc(C)c1Oc1nc(Nc2ccc(C#N)cc2)ncc1-c1ccc(C(F)(F)F)cc1 | > 35000 | 60.3 | 246 | 235 | 35000 | 25.4 | 598 | 724 | 5460 | 11.5 | – | – | – | – |
| Cc1cc(C#N)cc(C)c1Oc1nc(Nc2ccc(C#N)cc2)ncc1-c1ccc2ccccc2c1 | > 8460 | 76.9 | 195 | 356 | 8460 | 35.7 | 849 | 1200 | > 8460 | 16.8 | – | – | – | – |
| COc1ccc(-c2cnc(Nc3ccc(C#N)cc3)nc2Oc2c(C)cc(C#N)cc2C)cc1 | > 279000 | 38.4 | 164 | 186 | > 279000 | 14.6 | 143 | 278 | 3770 | 8 | – | – | – | – |
| Cc1cc(C#N)cc(C)c1Oc1nc(Nc2ccc(C#N)cc2)ncc1-c1ccc(-c2ccccc2)cc1 | > 253000 | 112 | 195 | 361 | > 253000 | 29.5 | 1320 | 1220 | 8520 | 20.5 | – | – | – | – |
| O=C1Nc2ccc(Cl)cc2[C@@](C#CC2CC2)(C(F)(F)F)O1 [EFAVIRENZ] | – | – | 30.8 | – | > 6340 | – | – | – | 273 | – | – | – | – | – |
| Cc1cc(C#N)cc(C)c1Oc1nc(Nc2ccc(C#N)cc2)ncc1-c1ccsc1 | > 3920 | 10.7 | 53.4 | 57.1 | 3920 | 4.3 | 41.8 | 64.8 | 1440 | 4.1 | – | – | – | – |
| Cc1cc(C#N)cc(C)c1Oc1nc(Nc2ccc(C#N)cc2)ncc1-c1ccccc1 | > 31800 | 122 | 446 | 576 | 31800 | 63.5 | 222 | 881 | 9130 | 24.4 | – | – | – | – |
| Cc1cc(C#N)cc(C)c1Oc1nc(Nc2ccc(C#N)cc2)ncc1-c1ccc(Cl)cc1 | > 72600 | 72.6 | 216 | 250 | 72600 | 19.5 | 567 | 902 | 5120 | 14.4 | – | – | – | – |
| Cc1cc(C#N)cc(C)c1Oc1nc(Nc2ccc(C#N)cc2)nc(N)c1Br [ETRAVIRINE] | – | – | – | – | > 4590 | – | – | – | – | – | – | – | – | – |
| Cc1cc(C#N)cc(C)c1Oc1nc(Nc2ccc(C#N)cc2)ncc1-c1cccc2ccccc12 | > 267000 | 5450 | 2670 | 21700 | > 267000 | 1820 | 10600 | 38400 | 218000 | 934 | – | – | – | – |
| Cc1cc(C)cc(-c2cnc(Nc3ccc(C#N)cc3)nc2Oc2c(C)cc(C#N)cc2C)c1 | > 38800 | 319 | 421 | 833 | 39000 | 135 | 2230 | 1110 | > 38800 | 102 | – | – | – | – |
| Cc1cc(C#N)cc(C)c1Oc1nc(Nc2ccc(C#N)cc2)ncc1-c1cccnc1 | > 13500 | 7.1 | 24.2 | 23.5 | 13500 | 2.7 | 20 | 112 | 300 | 2.5 | – | 1.4 | 1.2 | – |
| Cc1cc(C#N)cc(C)c1Oc1nc(Nc2ccc(C#N)cc2)ncc1-c1cccs1 | > 6430 | 12.9 | 21.1 | 36 | 6430 | 4.8 | 57.5 | 269 | 1150 | 4.9 | – | – | – | – |
| Cc1cc(C#N)cc(C)c1Oc1nc(Nc2ccc(C#N)cc2)ncc1-c1ccncc1 | > 28000 | 5.9 | 28.3 | 24.1 | 28000 | 4.2 | 30.9 | 41.3 | 718 | 2.5 | – | 1.4 | 1.2 | 570 |
| Cc1cc(C#N)cc(C)c1Oc1nc(Nc2ccc(C#N)cc2)ncc1-c1ccc(N)cc1 | > 310 | 10.5 | 20.5 | 41.6 | 310 | 3.8 | 33.5 | 44.1 | > 306 | 3.5 | – | – | – | – |
| Cc1cc(C#N)cc(C)c1Oc1nc(Nc2ccc(C#N)cc2)ncc1-c1ccoc1 | > 4980 | 9.3 | 19.1 | 17.9 | 4980 | 4.4 | 22.6 | 32.4 | 395 | 3.3 | – | – | – | – |
| Cc1cc(C#N)cc(C)c1Oc1nc(Nc2ccc(C#N)cc2)ncc1-c1ccco1 | > 307000 | 9.3 | 24.8 | 30.4 | > 307000 | 4.7 | 37.4 | 75.3 | 1010 | 3.6 | – | – | – | – |
| Cc1cn([C@H]2C[C@H](N=[N+]=[N-])[C@@H](CO)O2)c(=O)[nH]c1=O [ZIDOVUDINE] | – | – | – | – | > 7480 | – | – | – | 20.1 | – | – | – | – | – |
